Laboratory results as given in US20080039461A1, “Treatment of pain by inhibition of p38 map kinase” (priority 2002, published 2008).

Key:
Type in all cases: in vivo, rat
[1] = tested on: NMDA-induced hyperalgesia; assay: hyperalgesia induced by intrathecal NMDA; conditions: IT NMDA 0.3 μg; MK801 10 μg, IT SD 3-60 μg, IT SB 1-30 μg, SA 10 μg
Excerpt: (§1) Male Sprague-Dawley rats (300-350 g) were implanted under isoflurane anesthesia with lumbar polyethylene (PE-10) catheters according to a modified method originally described in Physiol. Behav. 17, 1031 (1976). […] IT saline and 5% DMSO alone had no effect on behavior or protein expression/phosphorylation.

[2] = tested on: formalin-induced flinching behavior; assay: formalin-induced flinching (paw formalin model); conditions: intrathecal pre-treatment (-10 min)
Description: An evaluation was conducted to determine presence or lack thereof for an afferent-mediated induction of phosphorylated (activated) spinal p38 MAPK. A formalin mediated hyperalgesia model was utilized to conduct the evaluation. (In the formalin model, a standard dose of formalin is injected into the rat paw, and flexions of the paw are quantitated over the following 90 minute period. A biphasic response pattern is typically observed, with numerous responses observed during the period five minutes after injection (Phase 1) and a second phase (Phase 2), which occurs during the period about 10-60 minutes following injection. The mean number of flinches per minute is recorded as a function of time. Quantitation of responses during each phase can be accomplished by calculation of area under the curve of flinches/minute.) The formalin induction model reflects several levels of processing of nociceptive information in the spinal cord. See, e.g., U.S. Pat. No. 6,166,085. […] This second phase is thought to represent a state of facilitated processing evoked by the afferent input present during phase I and to involve release of at least two substances, glutamate and a tachykinin, based on pharmacological evidence. Injection of formalin into the paw evokes an initial burst of afferent input followed by a persistent low level discharge. […]

[3] = tested on: thermal hyperalgesia induced by IT sP; assay: thermal hyperalgesia evoked by intrathecal substance P; conditions: intrathecal pretreatment (-10 min); sP 30 nmol/10 μL
Description: (The inhibitory activity of SD for p38 alpha and p38 beta was evaluated with an assay using recombinant (E. coli) human enzymes and myelin basic protein as a substrate by the methods of Clerk and Kumar respectively. See A. Clerk, P. […]. Sugden, FEBS Lett 426, 93-6. (1998) and S. Kumar, et al., Biochem Biophys Res Commun 235, 533-8. (1997).
as §1

[4] = tested on: carrageenan-induced thermal hyperalgesia; assay: carrageenan-induced thermal hyperalgesia (Hargreaves-type device)
Description: Hyperalgesia was induced in the rat's right hindpaw by intraplantar injection of carrageenan (2 mg in 0.1 ml of a […] solution (weight/volume) in physiological saline). To assess the thermally evoked paw withdrawal time, a device modeled after that described by Hargreaves (1988) was used. See Hargreaves K, Dubner R, Brown F, Flores C, Joris J. A new and sensitive method for measuring thermal nociception in cutaneous hyperalgesia, Pain, 32, 77-88 (1988). The device consisted of a glass surface on top of which the rats were placed. The glass surface was heated by a focused projection bulb below the glass surface. The first sign of discomfort is usually expressed as an attempt to sit up and lick the forepaws by the experimental animal. This response indicates a threshold of pain under the predetermined conditions. Dancing and jumping about by an undrugged animal is an indicator of unbearable pain; whereas drugged animals more commonly withdraw the hind paws and keep them close to their abdomen. A timer was actuated with the light source and latency defined as the time required for the paw to be withdrawn from the glass surface. See Dirig D M, Isakson P C, and Yaksh T L. J Pharmacol Exp Ther., 285, 1031-8 (1998).

C[S+]([O-])c1ccc(-c2nc(-c3ccncc3)c(-c3ccc(F)cc3)[nH]2)cc1 (centres unmarked) [SB, SB203580]
hyperalgesia induced by IT NMDA [1]: reversed in a dose dependent fashion | second phase of flinching behavior induced by formalin [2]: potent dose-dependent attenuation | thermal hyperalgesia induced by IT sP [3]: blocked the thermal hyperalgesia induced by IT sP in a dose dependent fashion | carrageenan-induced thermal hyperalgesia ([4]; intrathecal pre-treatment (-10 min)): potent dose-dependent suppression | response latency of the uninduced paw ([4]; intrathecal, even after the highest doses): no changes
